Data as given in PMC6368403, “Identification of a bilirubin receptor that may mediate a component of cholestatic itch” (eLife, 2019).
Values joined by “and” are separate entries in the source; they are usually repeats but may differ in a detail not shown here. Identical values can stand only once.

Columns and labels:
[1] = biological target: T1, MRGPRX4 (Homo sapiens, UniProt Q96LA9); test: [35S]GTPγS binding to MRGPRX4 membrane complexes; type: biochemical; conditions: 50 μM bilirubin
T1 construct: expressed in transfected cells
T1 sequence (Q96LA9 whole entry): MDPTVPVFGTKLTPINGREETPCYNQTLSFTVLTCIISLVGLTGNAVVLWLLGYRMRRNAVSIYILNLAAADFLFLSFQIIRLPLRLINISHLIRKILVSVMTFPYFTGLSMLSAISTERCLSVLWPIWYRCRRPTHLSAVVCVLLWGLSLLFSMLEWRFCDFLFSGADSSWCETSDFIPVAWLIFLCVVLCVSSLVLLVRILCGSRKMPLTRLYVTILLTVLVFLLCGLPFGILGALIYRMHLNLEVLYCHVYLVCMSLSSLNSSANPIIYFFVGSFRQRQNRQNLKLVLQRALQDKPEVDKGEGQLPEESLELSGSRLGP
Protocol: MRGPR activation was determined by measuring binding of a radiolabelled and non-hydrolyzable form of GTP, [^35S]guanosine-5’-(γ-thio)triphosphate ([^35S]GTPγS) as previously described ([Vasavda et al., 2017]). Briefly, 10 µg of crude membrane fractions were diluted into 175 µL assay buffer (50 mM HEPES, 5 mM MgCl2, 100 mM NaCl, 1 mM EDTA, 0.1% […]) supplemented with 10 µM GDP and incubated at room temperature for 5 min. Membranes were then incubated an additional 1 min in a final volume of 199 μL assay buffer supplemented with 50 μM bilirubin. Samples were then brought to 200 μL with the addition of 10 nM [^35S]GTPγS. Samples were incubated for 2 hr at 4°C with gentle agitation. The experiment was terminated by rapid filtration onto GF/B filters and washed three times with wash buffer (50 mM Tris-HCl, 5 mM MgCl2, and 50 mM NaCl at pH 7.4). Filters were then immersed in scintillation cocktail and counted. Nonspecific binding was determined by competition with 10 μM unlabelled GTPγS. GTPγS binding assays were performed as two independent experiments, in triplicate.

[2] = test system: Mrgpr-cluster KO DRG neurons; test: Ca2+ imaging of Mrgpr-cluster KO DRG neurons infected with lentivirus encoding Mrgpra1, MRGPRX4 or MRGPRX3; type: cell-based, mouse; conditions: 50 µM bilirubin (Fig 3J)
Protocol: DRGs were incubated with Fluo-4 AM 24 hr after dissociation (native genotype) or 48 hr after dissociation (virally transduced). Unless otherwise noted, cells were imaged for 20 seconds to establish a baseline before compounds were added. After 30 s, a 2 min wash was applied before addition of another substances. At the end of every imaging trial, 50 mM KCl was added as a positive control. […] For ruthenium red inhibitor experiments, neurons were incubated with 10 µM ruthenium red for 5 min prior to imaging. Percentage activated was determined as earlier described.
DRG neurons from all spinal levels were collected in cold DH10 media (90% Dulbecco’s modified Eagle’s medium (DMEM)/F-12, 10% FBS, penicillin (100 U/mL), and streptomycin (100 μg/mL)). DRGs were digested with a dispase (5 mg/ml)/collagenase type I (1 mg/ml) enzyme mixture at 37°C for 45 min. After trituration, cells were spun at 300 g and re-suspended in DH10 before being plated on glass coverslips coated with poly-D-lysine (0.5 mg/ml) and laminin (10 μg/ml, Invitrogen). DRGs were cultured with DH10 supplemented with 50 ng/mL NGF at 37°C.
Lentiviruses encoding various cDNA for MRGPRs were generated using psPAX2 and pMD2.G. Virus was pelleted by centrifugation at 100,000 g for 4 hr, gently washed with twice with DH10 medium, and suspended in DH10. One day after DRG isolation and culture, DRGs were infected with lentivirus […]. The following morning, medium was completely replaced with fresh DH10 supplemented with 50 ng/mL NGF. 24 hr after infection, cells were processed for calcium imaging.

[3] = biological target: T2, MRGPRC11 (Mus musculus, UniProt Q8CIP3); test: Microscale thermophoresis binding to MRGPRC11; conditions: for microscale thermophoresis response (binding isotherm), mean: mean of n=3, Fig 2-O
T2 construct: expressed in transfected cells
T2 sequence (Q8CIP3 1-322): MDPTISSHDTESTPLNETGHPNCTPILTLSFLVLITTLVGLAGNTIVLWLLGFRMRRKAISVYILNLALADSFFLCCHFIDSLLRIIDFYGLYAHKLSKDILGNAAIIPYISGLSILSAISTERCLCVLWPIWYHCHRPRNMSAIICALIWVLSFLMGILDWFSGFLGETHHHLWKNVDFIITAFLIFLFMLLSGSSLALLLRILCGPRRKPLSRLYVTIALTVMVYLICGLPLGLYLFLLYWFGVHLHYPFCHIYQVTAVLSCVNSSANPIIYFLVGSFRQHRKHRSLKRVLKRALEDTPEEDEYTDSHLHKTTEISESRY
Protocol: Binding isotherms for MRGPRA1, MRGPRX4, and MRGRPC11 towards various ligands were determined by microscale thermophoresis with the NanoTemper monolith NT.115 instrument ([Duhr and Braun, 2006]). Ligands were pre-incubated with 10 µM of the GFP-tagged receptor of interest for 5 min at room temperature in binding buffer (20 mM Tris and 150 mM NaCl at pH 8.8). Receptors were crudely purified as a membrane fraction from cells stably expressing the receptor ([Vasavda et al., 2017]). Haem metabolites were freshly dissolved in 0.1 M NaOH in dim light and then diluted into assay buffer. Lyophilized BAM8-22 was dissolved in binding buffer. The pH of each ligand was evaluated prior to incubation with a receptor. Samples were loaded into NT.115 Hydrophobic-Treated Capillaries from NanoTemper. Microscale thermophoretic experiments were executed using 20% LED power and 15% MST power. KDs were calculated using the law of mass action with data from three independent experiments. Binding between bilirubin and receptors was evaluated purely thermophoretically, whereas binding between BAM8-22 and MRGPRC11 was evaluated by T-Jump. Samples with dramatic deviations in initial fluorescence were excluded.

- GTP binding to MRGPRX4 membrane complexes [1]: increased GTP binding
- [35S]GTPγS binding ([1]; MRGPRX4 membrane complexes (Fig 2K)): 175 and 229 and 223
- microscale thermophoresis response (binding isotherm), mean ([3]; [Ligand] 3.05e-8 M): 2.385e-5
- microscale thermophoresis response (binding isotherm), mean ([3]; [Ligand] 6.1e-8 M): 4.712e-5
- microscale thermophoresis response (binding isotherm), mean ([3]; [Ligand] 1.221e-7 M): 4.182e-5
- microscale thermophoresis response (binding isotherm), mean ([3]; [Ligand] 2.441e-7 M): 4.08e-5
- microscale thermophoresis response (binding isotherm), mean ([3]; [Ligand] 4.883e-7 M): 5.536e-5
- microscale thermophoresis response (binding isotherm), mean ([3]; [Ligand] 9.766e-7 M): 1.928e-5
- microscale thermophoresis response (binding isotherm), mean ([3]; [Ligand] 1.9531e-6 M): -5.329e-6
- microscale thermophoresis response (binding isotherm), mean ([3]; [Ligand] 3.9063e-6 M): -1.57e-5
- microscale thermophoresis response (binding isotherm), mean ([3]; [Ligand] 7.8125e-6 M): -3.808e-5
- microscale thermophoresis response (binding isotherm), mean ([3]; [Ligand] 1.5625e-5 M): -4.952e-5
- microscale thermophoresis response (binding isotherm), mean ([3]; [Ligand] 3.125e-5 M): -4.222e-5
- microscale thermophoresis response (binding isotherm), mean ([3]; [Ligand] 6.25e-5 M): 5.5228e-6
- microscale thermophoresis response (binding isotherm), mean ([3]; [Ligand] 0.000125 M): 4.793e-5
- microscale thermophoresis response (binding isotherm), mean ([3]; [Ligand] 0.00025 M): 9.26e-5
- microscale thermophoresis response (binding isotherm), mean ([3]; [Ligand] 0.0005 M): 0.0002843
- Affinity for MRGPRC11 ([3]; microscale thermophoresis): little to no affinity
SMILES: C=CC1=C(C)/C(=C/c2[nH]c(Cc3[nH]c(/C=C4\NC(=O)C(C)=C4C=C)c(C)c3CCC(=O)O)c(CCC(=O)O)c2C)NC1=O [bilirubin, bilirubin IXα]
- Percent activated neurons ([2]; MRGPRX4-infected Mrgpr-cluster KO DRG): 32%
- Percent activated neurons ([2]; Mrgpra1-infected Mrgpr-cluster KO DRG): 14%
- Percent activated neurons ([2]; uninfected Mrgpr-cluster KO DRG): 1.3%
